The results in this text go back to patent US9242993B2, “Morpholino substituted bicyclic pyrimidine urea or carbamate derivatives as mTOR inhibitors” (CELLZOME LIMITED, priority 2011, dated 2016).

For test [1], the target named is mTOR (Homo sapiens, UniProt P42345). The test is described as follows: biochemical.
Test [2] relates to S6RP serine-240/244 phosphorylation. The test is described as follows: In vitro phospho-S6 cellular assay. Format: cell-based. To be noted: Homo sapiens; HEK293T/17 cells, 2 hours; read-out: pS6 inhibition value (IC50), activity level. An excerpt: Activation of mTOR signaling results in phosphorylation of several downstream targets. In cells, mTOR exists in two different protein complexes. The mTOR Complex-1 (mTORC1) phosphorylates and activates S6 Kinase 1 (S6K1) and S6 Kinase 2 (S6K2) (also known as p70S6K) which then phosphorylate S6 Ribosomal Protein (S6RP) (also known as RPS6)3. S6RP is phosphorylated on serine 235, serine 236, serine 240 and serine 244 by both pS6K1 and pS6K2. The mTOR Complex-2 (mTORC2) phosphorylates AKT on serine 473 which activates the AKT signaling pathway.
The assay measures a test compound's inhibition of S6RP serine-240/244 phosphorylation and inhibition of Akt serine-473 phosphorylation in human embryonic kidney derived HEK293T/17 cells (ATCC CRL-11268).
The HEK293T/17 cell line is maintained in DMEM media (Invitrogen catalogue number 41965-039) supplemented with 10% FCS at 37° C. in a 5% CO2 humidified incubator.
Cells are seeded in 96-well plates at 40,000 cells/well (pS6RP S240/244 assay) or 80,000 cells/well (pAkt S473 assay) in 90 μl growth media (DMEM, 2% FCS). Plates are incubated for 1 hour in a humidified incubator to allow the cells to adhere. Cells are treated with 8 concentrations of test compounds or DMSO alone for controls (final DMSO concentration 0.1%) and incubated at 37° C. for 2 hours. Then 20 μl of 5× concentrated lysis buffer (750 mM NaCl, 100 mM Tris pH7.4, 5 mM ADTA, 5 mM EGTA, 5% Triton X-100) is added, plates are sealed and incubated for 15 minutes at 4° C. with gentle shaking. After cell lysis, 25 μl cell lysate is transferred to a MesoScale plate coated with an antibody to pS6RP Ser240/244 (MesoScale Discovery K150DGD-3) or an antibody to pAkt Ser 473 (MesoScale Discovery K151DGD-3). Plates have been blocked before by incubation with 150 μl MesoScale Discovery Blocking Solution-A for 1 hour at room temperature followed by washing with 150 μl 1× Tris wash buffer per well. After the transfer of the cell lysate to the MSD plate, the pS6RP (or pAkt) protein is captured on the coated antibody by incubation at room temperature for 1 hour with gentle shaking. After the capture step the plate is washed three times with 150 μl of 1× Tris wash buffer per well. Then 25 μl detection antibody conjugated with a Sulfo-Tag is added and incubated for 1 hour at room temperature with gentle shaking. Subsequently the antibody solution is removed and the plate is washed 3 times with 150 μl 1× Tris wash buffer per well and 150 μl Read buffer is added. The plates are analysed on a MSD 2400 Plate Reader (MesoScale Discovery). Data analysis is performed using nonlinear regression for a sigmoidal dose-response with a variable slope.

The target of test [3] is DNA-dependent protein kinase (DNA-PK) (Homo sapiens, UniProt P78527). Put plainly: biochemical.
DNA-dependent protein kinase (DNA-PK), sequence (P78527 whole entry): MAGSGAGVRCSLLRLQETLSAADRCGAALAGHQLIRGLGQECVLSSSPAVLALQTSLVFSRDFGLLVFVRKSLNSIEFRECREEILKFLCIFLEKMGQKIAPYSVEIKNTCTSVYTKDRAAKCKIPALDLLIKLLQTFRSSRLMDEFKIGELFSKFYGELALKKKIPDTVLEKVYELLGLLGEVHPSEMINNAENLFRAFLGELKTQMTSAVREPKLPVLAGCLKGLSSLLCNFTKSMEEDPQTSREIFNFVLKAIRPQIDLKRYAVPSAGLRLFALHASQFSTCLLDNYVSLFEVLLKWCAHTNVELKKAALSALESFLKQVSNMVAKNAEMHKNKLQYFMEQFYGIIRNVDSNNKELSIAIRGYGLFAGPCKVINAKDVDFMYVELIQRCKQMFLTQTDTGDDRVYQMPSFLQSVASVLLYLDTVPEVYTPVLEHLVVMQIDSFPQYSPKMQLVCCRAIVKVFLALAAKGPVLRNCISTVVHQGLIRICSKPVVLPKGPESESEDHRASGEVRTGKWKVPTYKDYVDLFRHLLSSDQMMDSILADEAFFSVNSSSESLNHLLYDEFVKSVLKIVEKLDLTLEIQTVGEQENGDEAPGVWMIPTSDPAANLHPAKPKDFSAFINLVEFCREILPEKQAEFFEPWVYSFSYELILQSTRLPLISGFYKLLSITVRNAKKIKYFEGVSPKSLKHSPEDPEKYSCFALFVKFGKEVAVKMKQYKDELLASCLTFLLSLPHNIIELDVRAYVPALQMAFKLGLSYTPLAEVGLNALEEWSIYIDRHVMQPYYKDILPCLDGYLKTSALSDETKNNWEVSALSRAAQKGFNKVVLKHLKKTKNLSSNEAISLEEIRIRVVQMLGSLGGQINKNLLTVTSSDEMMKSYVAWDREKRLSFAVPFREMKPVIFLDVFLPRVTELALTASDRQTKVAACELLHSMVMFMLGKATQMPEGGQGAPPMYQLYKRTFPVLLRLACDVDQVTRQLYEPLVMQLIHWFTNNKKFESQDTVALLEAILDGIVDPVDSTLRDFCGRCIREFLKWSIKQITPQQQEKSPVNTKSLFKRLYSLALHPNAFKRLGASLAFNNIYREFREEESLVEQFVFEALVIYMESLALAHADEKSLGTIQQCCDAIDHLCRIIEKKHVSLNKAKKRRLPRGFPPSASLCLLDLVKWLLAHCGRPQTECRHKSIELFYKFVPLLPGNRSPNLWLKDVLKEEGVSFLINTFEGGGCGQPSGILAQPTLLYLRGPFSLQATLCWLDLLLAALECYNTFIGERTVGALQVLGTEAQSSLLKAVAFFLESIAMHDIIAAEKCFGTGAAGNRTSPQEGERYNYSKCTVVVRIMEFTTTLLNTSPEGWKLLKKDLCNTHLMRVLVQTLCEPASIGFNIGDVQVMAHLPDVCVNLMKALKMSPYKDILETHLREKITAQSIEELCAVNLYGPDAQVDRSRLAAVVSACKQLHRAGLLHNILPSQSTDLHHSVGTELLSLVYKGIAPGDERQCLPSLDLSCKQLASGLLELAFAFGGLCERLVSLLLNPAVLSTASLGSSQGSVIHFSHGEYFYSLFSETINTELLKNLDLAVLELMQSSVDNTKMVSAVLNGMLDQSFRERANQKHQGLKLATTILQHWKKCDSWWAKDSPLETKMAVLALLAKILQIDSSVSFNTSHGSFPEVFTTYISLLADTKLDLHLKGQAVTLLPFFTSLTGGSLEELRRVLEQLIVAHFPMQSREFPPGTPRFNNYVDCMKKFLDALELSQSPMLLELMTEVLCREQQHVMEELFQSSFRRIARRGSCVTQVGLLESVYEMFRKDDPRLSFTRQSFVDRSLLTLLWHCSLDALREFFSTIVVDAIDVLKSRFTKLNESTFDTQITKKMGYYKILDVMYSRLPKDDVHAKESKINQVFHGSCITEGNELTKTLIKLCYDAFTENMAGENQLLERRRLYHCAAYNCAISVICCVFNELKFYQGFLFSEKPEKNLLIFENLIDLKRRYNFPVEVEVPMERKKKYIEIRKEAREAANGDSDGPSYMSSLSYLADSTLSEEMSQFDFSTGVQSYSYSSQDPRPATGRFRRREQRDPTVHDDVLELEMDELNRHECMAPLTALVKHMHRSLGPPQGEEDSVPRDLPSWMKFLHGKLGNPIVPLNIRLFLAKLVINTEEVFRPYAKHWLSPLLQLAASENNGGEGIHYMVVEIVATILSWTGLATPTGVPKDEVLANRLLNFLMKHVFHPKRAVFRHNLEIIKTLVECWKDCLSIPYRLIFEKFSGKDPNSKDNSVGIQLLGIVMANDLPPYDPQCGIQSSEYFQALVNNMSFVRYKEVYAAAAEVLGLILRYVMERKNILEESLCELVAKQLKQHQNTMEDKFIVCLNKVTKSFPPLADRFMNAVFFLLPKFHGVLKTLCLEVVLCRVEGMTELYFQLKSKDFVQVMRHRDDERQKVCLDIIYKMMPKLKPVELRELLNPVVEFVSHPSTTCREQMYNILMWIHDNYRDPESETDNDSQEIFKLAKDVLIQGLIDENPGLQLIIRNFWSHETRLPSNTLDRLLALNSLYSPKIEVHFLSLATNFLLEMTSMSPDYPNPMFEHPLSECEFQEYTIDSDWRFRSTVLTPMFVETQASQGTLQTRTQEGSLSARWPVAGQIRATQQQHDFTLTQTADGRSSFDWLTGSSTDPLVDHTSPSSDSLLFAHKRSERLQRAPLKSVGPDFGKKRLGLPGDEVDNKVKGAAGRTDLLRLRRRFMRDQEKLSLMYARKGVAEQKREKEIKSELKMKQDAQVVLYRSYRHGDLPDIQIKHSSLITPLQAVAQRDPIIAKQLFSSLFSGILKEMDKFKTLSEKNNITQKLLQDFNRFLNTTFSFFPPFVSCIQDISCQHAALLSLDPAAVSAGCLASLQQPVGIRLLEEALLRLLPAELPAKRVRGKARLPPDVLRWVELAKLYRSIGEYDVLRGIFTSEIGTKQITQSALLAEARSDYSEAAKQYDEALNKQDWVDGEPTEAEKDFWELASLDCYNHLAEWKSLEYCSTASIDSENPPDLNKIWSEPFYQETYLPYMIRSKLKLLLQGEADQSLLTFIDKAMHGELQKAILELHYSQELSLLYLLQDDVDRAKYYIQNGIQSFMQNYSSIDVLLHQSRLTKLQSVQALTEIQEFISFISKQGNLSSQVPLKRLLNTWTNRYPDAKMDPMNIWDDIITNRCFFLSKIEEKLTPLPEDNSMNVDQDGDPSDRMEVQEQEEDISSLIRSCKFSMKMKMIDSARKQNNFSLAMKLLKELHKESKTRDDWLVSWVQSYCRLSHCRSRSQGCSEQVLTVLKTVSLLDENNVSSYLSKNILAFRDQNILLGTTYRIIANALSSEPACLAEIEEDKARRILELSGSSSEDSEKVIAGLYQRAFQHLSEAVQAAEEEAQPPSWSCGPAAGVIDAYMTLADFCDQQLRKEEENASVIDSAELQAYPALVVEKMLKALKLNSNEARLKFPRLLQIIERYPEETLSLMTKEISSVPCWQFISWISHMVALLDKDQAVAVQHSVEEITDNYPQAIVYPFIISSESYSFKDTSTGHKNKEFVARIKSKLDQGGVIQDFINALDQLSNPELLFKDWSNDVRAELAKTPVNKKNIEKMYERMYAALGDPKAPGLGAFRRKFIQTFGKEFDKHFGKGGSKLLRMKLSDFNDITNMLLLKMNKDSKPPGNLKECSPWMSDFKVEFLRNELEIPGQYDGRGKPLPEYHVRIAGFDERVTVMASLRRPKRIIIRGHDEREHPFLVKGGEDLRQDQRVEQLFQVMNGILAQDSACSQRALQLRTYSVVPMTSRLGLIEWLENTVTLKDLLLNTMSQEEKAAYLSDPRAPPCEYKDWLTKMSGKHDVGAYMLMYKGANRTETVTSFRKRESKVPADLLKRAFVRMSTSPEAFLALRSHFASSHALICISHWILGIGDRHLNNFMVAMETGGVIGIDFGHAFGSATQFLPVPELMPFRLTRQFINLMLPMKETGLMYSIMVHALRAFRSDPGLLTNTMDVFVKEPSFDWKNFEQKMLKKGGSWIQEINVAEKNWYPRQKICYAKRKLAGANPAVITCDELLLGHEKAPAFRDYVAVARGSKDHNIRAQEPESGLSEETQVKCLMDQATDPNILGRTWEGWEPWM

With `CCC1COCCN1c1nc(-c2ccc(NC(=O)NC3CC3)cc2)nc2c1C(C)S(=O)(=O)C2` (stereo not drawn) [Example 32, 1-cyclopropyl-3-(4-(4-(3-ethylmorpholino)-5-methyl-6,6-dioxido-5,7-dihydrothieno[3,4-d]pyrimidin-2-yl)phenyl)urea], the IC50 – broadly, the concentration needed to halve the response being measured – in test [1] was under 100 nM; in test [2], under 100 nM; in test [3] it was over 10000 nM.

In the case of `O=C(NCCO)Nc1ccc(-c2nc3c(c(N4CC5CCC(C4)O5)n2)CS(=O)(=O)C3)cc1` [Example 16, 1-(4-(4-(8-oxa-3-azabicyclo[3.2.1]octan-3-yl)-6,6-dioxido-5,7-dihydrothieno[3,4-d]pyrimidin-2-yl)phenyl)-3-(2-hydroxyethyl)urea], the IC50 was under 100 nM in test [1], 1000 to 10000 nM in test [2] and over 10000 nM in test [3].

As to `O=C(NCCCF)Nc1ccc(-c2nc3c(c(N4CC5CCC(C4)O5)n2)CS(=O)(=O)C3)cc1` [Example 29, 1-(4-(4-(8-oxa-3-azabicyclo[3.2.1]octan-3-yl)-6,6-dioxido-5,7-dihydrothieno[3,4-d]pyrimidin-2-yl)phenyl)-3-(3-fluoropropyl)urea], the results for the 50% inhibitory concentration (IC50) in test [1], in test [2] and in test [3] were 100 to 1000 nM, 100 to 1000 nM and over 10000 nM, respectively.

Take `O=C(NCCF)Nc1ccc(-c2nc3c(c(N4CC5CCC(C4)O5)n2)CS(=O)(=O)C3)cc1` [Example 22, 1-(4-(4-(8-oxa-3-azabicyclo[3.2.1]octan-3-yl)-6,6-dioxido-5,7-dihydrothieno[3,4-d]pyrimidin-2-yl)phenyl)-3-(2-fluoroethyl)urea]: the IC50 was under 100 nM in test [1], 100 to 1000 nM in test [2] and over 10000 nM in test [3].

In the case of `CCNC(=O)Nc1ccc(-c2nc3c(c(N4CC5CCC(C4)O5)n2)CS(=O)(=O)C3)cc1` [Example 15, 1-(4-(4-(8-oxa-3-azabicyclo[3.2.1]octan-3-yl)-6,6-dioxido-5,7-dihydrothieno[3,4-d]pyrimidin-2-yl)phenyl)-3-ethylurea], the figures for the IC50 in test [1], in test [2] and in test [3] were under 100 nM, under 100 nM and over 10000 nM, respectively.

As to `CNC(=O)Nc1ccc(-c2nc3c(c(N4CCOC[C@@H]4C)n2)CS(=O)(=O)C3)cc1` [Example 12, (S)-1-methyl-3-(4-(4-(3-methylmorpholino)-6,6-dioxido-5,7-dihydrothieno[3,4-d]pyrimidin-2-yl)phenyl)urea], the IC50 in test [1] was under 100 nM; in test [2], 100 to 1000 nM; in test [3], over 10000 nM.

As for `C[C@H]1COCCN1c1nc(-c2ccc(NC(=O)NCCCF)cc2)nc2c1CS(=O)(=O)C2` [Example 28, (S)-1-(3-fluoropropyl)-3-(4-(4-(3-methylmorpholino)-6,6-dioxido-5,7-dihydrothieno[3,4-d]pyrimidin-2-yl)phenyl)urea], the values for the IC50 in test [1], in test [2] and in test [3] were 100 to 1000 nM, 100 to 1000 nM and over 10000 nM, respectively.

On to `O=C(Nc1ccc(-c2nc3c(c(N4CCOCC4)n2)CS(=O)(=O)C3)cc1)NC1CC1` [Example 18, 1-cyclopropyl-3-(4-(4-morpholino-6,6-dioxido-5,7-dihydrothieno[3,4-d]pyrimidin-2-yl)phenyl)urea], for which the IC50 was under 100 nM in test [1], 100 to 1000 nM in test [2] and over 10000 nM in test [3].

As to `O=C(Nc1ccc(-c2nc3c(c(N4C5CCC4COC5)n2)CS(=O)(=O)C3)cc1)NC1CC1` [Example 26, 1-(4-(4-(3-oxa-8-azabicyclo[3.2.1]octan-8-yl)-6,6-dioxido-5,7-dihydrothieno[3,4-d]pyrimidin-2-yl)phenyl)-3-cyclopropylurea], the IC50 was under 100 nM in test [1], under 100 nM in test [2] and over 10000 nM in test [3].

Take `C[C@H]1COCCN1c1nc(-c2ccc(NC(=O)NCCO)cc2)nc2c1CS(=O)(=O)C2` [Example 13, (S)-1-(2-hydroxyethyl)-3-(4-(4-(3-methylmorpholino)-6,6-dioxido-5,7-dihydrothieno[3,4-d]pyrimidin-2-yl)phenyl)urea]: the IC50 was under 100 nM in test [1], 1000 to 10000 nM in test [2] and 1000 to 10000 nM in test [3].
